Experimental data from patent US10654814B2, “Bicyclic hydroxamic acids useful as inhibitors of mammalian histone deacetylase activity” (KANCERA AB, priority 2015, dated 2020).
Where a name gives a salt, the structure may show the parent alone. Read-outs that look alike come from different tables or passages of the source.

Key:
[1] = system: PaCa2 (pancreatic) cells; assay: CellTiter-Blue cell viability assay, PaCa2; format: cell-based; settings: PaCa-2; 72 hours of treatment
Protocol: (§1) Method for Measurement of Cell Viability
(§2) The CellTiter-Blue® Cell Viability Assay (Promega) provides a homogeneous, fluorometric method for estimating the number of viable cells present in multi-well plates. The assay uses the indicator dye resazurin to measure the metabolic capacity of cells. Viable cells retain the ability to reduce resazurin into resorufin, which is highly fluorescent.
(§3) Stock solutions (10 mM in DMSO) of compounds were serially diluted 1:2 in 11 concentrations. 50 nL/well (10 mM compound stock in DMSO) was acoustically dispensed in 384-well assay plates with an acoustic dispenser (EDC Biosystems ATS-100AV). Final starting concentration in the assay was 20 μM (0.2% DMSO) for test compounds. The following cell-lines (and origin) have been primarily used: PaCa2 (pancreatic), U266 (multiple myeloma), AMO-1 (plasmacytoma), and MDA-MB-231 (breast adenocarcinoma). PBMCs (peripheral blood mononuclear cells) from healthy donors were used as control cells. Cells were seeded in assay plates (384-well black/clear, Greiner #781091) pre-dispensed with compounds, 25 μL/well, and cultured for 72 hours. After 72 hours, Celltiter Blue reagent (Promega # G8081) was diluted 1:10 with PBS and then added to wells (5 μL/well). The plates were incubated for 2 hours following addition of reagent. The plates were read in an EnVision fluorescence reader (PerkinElmer) with Ex544 nm/Em590 nm. Results were calculated as % cell viability compared to background (cells treated with 0.2% DMSO).

[2] = system: MDA-MB-231 (breast adenocarcinoma) cells; assay: CellTiter-Blue cell viability assay, MDA-MB-231; format: cell-based; settings: Homo sapiens, 72 hours of treatment
Protocol: as §1, §2, §3

[3] = system: U266 (multiple myeloma) cells; assay: CellTiter-Blue cell viability assay, U266; format: cell-based; settings: Homo sapiens, U-266; 72 hours of treatment
Protocol: as §1, §2, §3

[4] = system: AMO-1 (plasmacytoma) cells; assay: CellTiter-Blue cell viability assay, AMO-1; format: cell-based; settings: Homo sapiens, AMO1; 72 hours of treatment
Protocol: as §1, §2, §3

[5] = system: PBMCs (peripheral blood mononuclear cells) from healthy donors; assay: CellTiter-Blue cell viability assay, healthy PBMC; format: cell-based; settings: 72 hours of treatment
Protocol: as §1, §2, §3

[6] = molecular target: HDAC2 (Homo sapiens (Human), UniProt Q92769); assay: HDAC2 in vitro enzymatic assay (fluorescence); format: biochemical; settings: Table 4 selectivity profiling
Chain of HDAC2 (Q92769 whole entry): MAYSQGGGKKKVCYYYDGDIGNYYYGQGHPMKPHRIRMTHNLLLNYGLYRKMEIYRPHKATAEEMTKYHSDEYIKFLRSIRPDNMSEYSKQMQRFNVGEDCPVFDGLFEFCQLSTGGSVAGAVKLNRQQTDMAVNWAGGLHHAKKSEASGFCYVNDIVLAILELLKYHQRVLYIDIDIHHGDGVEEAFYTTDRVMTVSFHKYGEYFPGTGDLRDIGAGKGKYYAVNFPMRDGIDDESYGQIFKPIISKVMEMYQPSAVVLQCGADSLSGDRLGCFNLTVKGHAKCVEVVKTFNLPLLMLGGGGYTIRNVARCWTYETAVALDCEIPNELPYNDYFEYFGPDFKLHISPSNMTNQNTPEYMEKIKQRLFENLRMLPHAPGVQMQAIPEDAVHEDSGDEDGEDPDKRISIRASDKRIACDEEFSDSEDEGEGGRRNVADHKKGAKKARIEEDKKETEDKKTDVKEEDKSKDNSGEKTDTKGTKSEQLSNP
Protocol: (§4) Biological Tests Method for Measurement of Enzymatic Activity of HDACs Materials & Methods
(§5) All Examples were tested in HDAC1,2,3,6 and 8 in vitro enzymatic assays. The assay principle is well known (Hauser et al. 2009, Bradner et al. 2010) and all necessary reagents like enzymes, substrates, developer and reference compounds are commercially available (see e.g. BPS Biosciences http://www.bpsbioscience.com/). Stock solutions (10 mM in DMSO) of compounds were serially diluted 1:3 in 11 concentrations with a top concentration of 200 μM for HDAC1,2,3 and 2 μM for HDAC6 and HDAC8. The enzymatic reactions were conducted in a mixture containing assay buffer, bovine serum albumin, HDAC substrate, and a test compound. After enzymatic reaction, developer was added and after an additional incubation time, fluorescence intensity was measured at an excitation wavelength of 360 nm and an emission wavelength of 460 nm. All experiments were performed in duplicate.

[7] = molecular target: HDAC1 (Homo sapiens (Human), UniProt Q13547); assay: HDAC1 in vitro enzymatic assay (fluorescence); format: biochemical; settings: Table 4 selectivity profiling
Chain of HDAC1 (Q13547 whole entry): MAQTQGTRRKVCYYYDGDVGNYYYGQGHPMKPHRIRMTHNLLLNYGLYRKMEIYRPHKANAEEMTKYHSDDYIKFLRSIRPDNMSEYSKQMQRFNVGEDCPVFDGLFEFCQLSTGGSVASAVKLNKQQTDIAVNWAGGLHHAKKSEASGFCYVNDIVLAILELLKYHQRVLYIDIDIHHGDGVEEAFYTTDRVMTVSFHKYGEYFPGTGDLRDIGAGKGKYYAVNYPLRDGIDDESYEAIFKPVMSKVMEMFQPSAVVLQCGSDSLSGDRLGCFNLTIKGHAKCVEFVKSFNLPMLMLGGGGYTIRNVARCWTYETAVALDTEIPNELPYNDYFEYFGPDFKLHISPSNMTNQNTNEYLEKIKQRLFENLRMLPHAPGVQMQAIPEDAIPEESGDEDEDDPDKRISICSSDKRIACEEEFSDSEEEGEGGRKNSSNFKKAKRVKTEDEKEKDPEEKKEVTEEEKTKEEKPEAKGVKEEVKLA
Protocol: as §4, §5

[8] = molecular target: HDAC3 (Homo sapiens (Human), UniProt O15379); assay: HDAC3 in vitro enzymatic assay (fluorescence); format: biochemical; settings: Table 4 selectivity profiling
Chain of HDAC3 (O15379 whole entry): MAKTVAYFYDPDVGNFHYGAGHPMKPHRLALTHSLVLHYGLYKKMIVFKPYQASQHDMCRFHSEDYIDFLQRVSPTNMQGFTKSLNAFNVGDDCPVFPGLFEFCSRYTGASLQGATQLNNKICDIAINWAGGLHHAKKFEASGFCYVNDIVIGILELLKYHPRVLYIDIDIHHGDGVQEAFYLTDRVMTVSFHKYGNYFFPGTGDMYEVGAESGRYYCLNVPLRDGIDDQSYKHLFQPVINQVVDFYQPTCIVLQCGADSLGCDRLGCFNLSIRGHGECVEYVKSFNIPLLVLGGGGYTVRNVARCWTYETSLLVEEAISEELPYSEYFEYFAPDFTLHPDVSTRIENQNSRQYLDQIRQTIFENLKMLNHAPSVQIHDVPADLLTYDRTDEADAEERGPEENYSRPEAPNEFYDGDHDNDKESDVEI
Chain of HDAC3 (Q9Y618 395-489 partner): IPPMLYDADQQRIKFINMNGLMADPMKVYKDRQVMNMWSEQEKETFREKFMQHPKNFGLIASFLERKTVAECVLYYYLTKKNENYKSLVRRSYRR
Protocol: as §4, §5

[9] = molecular target: HDAC8 (Homo sapiens (Human), UniProt Q9BY41); assay: HDAC8 in vitro enzymatic assay (fluorescence); format: biochemical; settings: Table 4 selectivity profiling
Chain of HDAC8 (Q9BY41 whole entry): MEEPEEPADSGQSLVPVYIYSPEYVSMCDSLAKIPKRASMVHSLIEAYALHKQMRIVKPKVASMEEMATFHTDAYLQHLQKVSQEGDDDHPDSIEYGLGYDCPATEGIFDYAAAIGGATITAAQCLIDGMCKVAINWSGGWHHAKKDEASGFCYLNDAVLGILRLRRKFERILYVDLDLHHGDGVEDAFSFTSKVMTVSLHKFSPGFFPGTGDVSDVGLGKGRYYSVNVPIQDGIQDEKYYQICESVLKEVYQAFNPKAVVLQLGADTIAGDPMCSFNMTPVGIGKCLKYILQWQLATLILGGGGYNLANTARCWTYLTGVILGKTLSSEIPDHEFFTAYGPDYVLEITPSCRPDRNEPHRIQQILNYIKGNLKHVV
Protocol: as §4, §5

[10] = molecular target: HDAC6 (Homo sapiens (Human), UniProt Q9UBN7); assay: HDAC6 in vitro enzymatic assay (fluorescence); format: biochemical
Chain of HDAC6 (Q9UBN7 whole entry): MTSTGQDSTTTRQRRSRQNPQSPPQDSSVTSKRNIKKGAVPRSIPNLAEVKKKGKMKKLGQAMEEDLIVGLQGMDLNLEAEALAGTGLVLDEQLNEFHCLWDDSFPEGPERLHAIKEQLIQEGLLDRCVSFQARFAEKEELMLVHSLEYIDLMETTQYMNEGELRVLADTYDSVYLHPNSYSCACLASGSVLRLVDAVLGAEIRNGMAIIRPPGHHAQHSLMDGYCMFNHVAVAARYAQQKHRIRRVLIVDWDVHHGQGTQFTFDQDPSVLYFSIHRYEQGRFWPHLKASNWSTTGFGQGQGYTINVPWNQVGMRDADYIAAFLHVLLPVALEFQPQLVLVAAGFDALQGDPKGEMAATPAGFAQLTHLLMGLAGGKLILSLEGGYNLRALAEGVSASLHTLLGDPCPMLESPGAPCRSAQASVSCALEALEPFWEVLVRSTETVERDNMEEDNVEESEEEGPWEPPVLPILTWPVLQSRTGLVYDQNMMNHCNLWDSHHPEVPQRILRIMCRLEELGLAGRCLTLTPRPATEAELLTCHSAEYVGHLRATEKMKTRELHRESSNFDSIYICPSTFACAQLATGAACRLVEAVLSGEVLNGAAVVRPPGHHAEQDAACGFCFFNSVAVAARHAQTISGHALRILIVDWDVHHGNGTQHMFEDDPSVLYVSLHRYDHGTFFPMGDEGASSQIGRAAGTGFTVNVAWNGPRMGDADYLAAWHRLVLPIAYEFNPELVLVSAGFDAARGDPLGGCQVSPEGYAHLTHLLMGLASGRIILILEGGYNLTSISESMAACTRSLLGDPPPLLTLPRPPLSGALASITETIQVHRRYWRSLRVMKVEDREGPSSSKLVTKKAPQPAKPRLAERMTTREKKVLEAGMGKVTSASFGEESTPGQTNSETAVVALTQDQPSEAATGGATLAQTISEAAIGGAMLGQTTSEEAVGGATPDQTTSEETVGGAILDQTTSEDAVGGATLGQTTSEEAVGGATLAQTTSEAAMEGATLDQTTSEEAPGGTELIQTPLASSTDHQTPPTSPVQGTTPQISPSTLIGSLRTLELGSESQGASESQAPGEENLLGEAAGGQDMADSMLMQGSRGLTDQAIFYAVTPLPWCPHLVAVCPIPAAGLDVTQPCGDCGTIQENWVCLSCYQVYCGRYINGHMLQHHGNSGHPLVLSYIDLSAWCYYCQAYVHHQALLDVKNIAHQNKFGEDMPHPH
Protocol: as §4, §5

[11] = Table 3, read-out: IC50 (nM) for inhibition of HDAC6
[12] = Table 4 selectivity profiling, read-out: IC50 (nM) HDAC6

CC(C)c1ccc(-c2cc3cc(C(=O)NO)ccc3o2)cc1 [Example 111, N-Hydroxy-2-[4-(1-methylethyl)phenyl]-1-benzofuran-5-carboxamide]
IC50 [1]: 1.3 µM
IC50 [2]: 1.2 µM
IC50 [3]: 0.67 µM
IC50 [4]: 0.67 µM
IC50 [5]: > 20 µM

CC(C)c1ccc(-c2nc3ccc(C(=O)NO)cc3s2)cc1 [Example 61]
IC50 [1]: 0.9 µM
IC50 [2]: 1.8 µM
IC50 [3]: 1.1 µM
IC50 [4]: 0.81 µM
IC50 [5]: > 20 µM

O=C(NO)c1ccc2sc(-c3ccc(F)cc3)nc2c1 [Example 76, 2-(4-Fluorophenyl)-N-hydroxy-1,3-benzothiazole-5-carboxamide]
IC50 [6]: 6600 nM
IC50 [7]: 1500 nM
IC50 [8]: 450 nM
IC50 [9]: 340 nM
IC50 [10, 11]: 18 nM
IC50 [10, 12]: 18 nM

CC(C)c1ccc(-c2cc3cc(C(=O)NO)cnc3o2)cc1 [Example 113, N-Hydroxy-2-[4-(1-methylethyl)phenyl]furo[2,3-b]pyridine-5-carboxamide]
IC50 [6]: 2000 nM
IC50 [7]: 500 nM
IC50 [8]: 330 nM
IC50 [9]: 120 nM
IC50 [10, 11]: 22 nM
IC50 [10, 12]: 22 nM

O=C(NO)c1ccc2oc(-c3ccccc3Cl)nc2c1 [Example 12, 2-(2-chlorophenyl)-N-hydroxy-1,3-benzoxazole-5-carboxamide]
IC50 [6]: 52000 nM
IC50 [7]: 1200 nM
IC50 [8]: 560 nM
IC50 [9]: 880 nM
IC50 [10, 11]: 5 nM
IC50 [10, 12]: 5 nM

O=C(NO)c1ccc2nc(Nc3cccc(OCc4ccccc4)c3)[nH]c2c1 [Example 132, 2-((3-(benzyloxy)phenyl)amino)-N-hydroxy-1H-benzo[d]imidazole-6-carboxamide]
IC50 [6]: 24000 nM
IC50 [7]: 1200 nM
IC50 [8]: 370 nM
IC50 [9]: 240 nM
IC50 [10, 11]: 17 nM
IC50 [10, 12]: 17 nM

COc1ccc(F)cc1-c1ccc(-c2nc3cc(C(=O)NO)ccc3o2)c(F)c1 [Example 193, 2-(3,5′-difluoro-2′-methoxybiphenyl-4-yl)-N-hydroxy-1,3-benzoxazole-5-carboxamide]
IC50 [1]: 2.2 µM
IC50 [2]: 0.98 µM
IC50 [3]: 1.2 µM
IC50 [4]: 2.3 µM
IC50 [5]: > 20 µM

O=C(NO)c1ccc2nc(-c3cccc4cccnc34)sc2c1 [Example 70, N-hydroxy-2-quinolin-8-yl-1,3-benzothiazole-6-carboxamide]
IC50 [6]: 19000 nM
IC50 [7]: 6100 nM
IC50 [8]: 2300 nM
IC50 [9]: 320 nM
IC50 [10, 12]: 65 nM

COc1cccc(-c2cc3ccc(C(=O)NO)cc3o2)c1 [Example 285, N-hydroxy-2-(3-methoxyphenyl)-1-benzofuran-6-carboxamide]
IC50 [6]: 6900 nM
IC50 [7]: 470 nM
IC50 [8]: 640 nM
IC50 [9]: 210 nM
IC50 [10, 11]: 4 nM
IC50 [10, 12]: 4 nM

Cc1noc(C)c1-c1cc2cc(C(=O)NO)ccc2s1 [Example 100, 2-(3,5-dimethylisoxazol-4-yl)-N-hydroxy-1-benzothiophene-5-carboxamide]
IC50 [6]: 74000 nM
IC50 [7]: 14000 nM
IC50 [8]: 18000 nM
IC50 [9]: 760 nM
IC50 [10, 11]: 36 nM
IC50 [10, 12]: 36 nM

O=C(NO)c1ccc2oc(COc3cccc(F)c3)cc2c1 [Example 162, 2-[(3-Fluorophenoxy)methyl]-N-hydroxy-1-benzofuran-5-carboxamide]
IC50 [6]: 3500 nM
IC50 [7]: 550 nM
IC50 [8]: 320 nM
IC50 [9]: 1500 nM
IC50 [10, 11]: 7 nM
IC50 [10, 12]: 7 nM

CCN(CC)Cc1cc2ccc(C(=O)NO)cc2o1 [Example 117, 2-[(Diethylamino)methyl]-N-hydroxy-1-benzofuran-6-carboxamide trifluoroacetate]
IC50 [6]: 69000 nM
IC50 [7]: 19000 nM
IC50 [8]: 25000 nM
IC50 [9]: 1400 nM
IC50 [10, 11]: 64 nM
IC50 [10, 12]: 26 nM

O=C(NO)c1ccc2oc(-c3ccc(C(F)(F)F)cc3)nc2c1 [Example 18, N-hydroxy-2-[4-(trifluoromethyl)phenyl]-1,3-benzoxazole-5-carboxamide]
IC50 [6]: 11000 nM
IC50 [7]: 2000 nM
IC50 [8]: 1600 nM
IC50 [9]: 1300 nM
IC50 [10, 12]: 37 nM

O=C(NO)c1ccc2sc(-c3cccnc3)cc2c1 [Example 96, N-hydroxy-2-pyridin-3-yl-1-benzothiophene-5-carboxamide]
IC50 [6]: 55000 nM
IC50 [7]: 9700 nM
IC50 [8]: 7200 nM
IC50 [9]: 960 nM
IC50 [10, 11]: 64 nM
IC50 [10, 12]: 64 nM

O=C(NO)c1ccc2oc(-c3ccc(C4CC4)cc3)nc2c1 [Example 29, 2-(4-Cyclopropylphenyl)-N-hydroxy-1,3-benzoxazole-5-carboxamide]
IC50 [6]: 10000 nM
IC50 [7]: 2100 nM
IC50 [8]: 1000 nM
IC50 [9]: 1400 nM
IC50 [10, 11]: 10 nM
IC50 [10, 12]: 10 nM

COc1ccc(-c2ccc(-c3nc4cc(C(=O)NO)ccc4o3)c(F)c2)cn1 [Example 176, 2-[2-fluoro-4-(6-methoxypyridin-3-yl)phenyl]-N-hydroxy-1,3-benzoxazole-5-carboxamide]
IC50 [6]: > 200000 nM
IC50 [7]: > 200000 nM
IC50 [8]: 960 nM
IC50 [9]: 384 nM
IC50 [10, 12]: 16 nM

CN(C)Cc1ccc(-c2cc3ccc(C(=O)NO)cc3o2)cc1 [Example 283, 2-{4-[(dimethylamino)methyl]phenyl}-N-hydroxy-1-benzofuran-6-carboxamide trifluoroacetate]
IC50 [10, 11]: 7 nM

O=C(NO)c1ccc2oc(N3CCC(Cc4ccccc4)CC3)nc2c1 [Example 48, 2-(4-benzylpiperidin-1-yl)-N-hydroxy-1,3-benzoxazole-5-carboxamide]
IC50 [10, 11]: 73 nM

Cc1[nH]c2ccccc2c1-c1nc2cc(C(=O)NO)ccc2o1 [Example 228, N-hydroxy-2-(2-methyl-1H-indol-3-yl)-1,3-benzoxazole-5-carboxamide]
IC50 [10, 11]: 27 nM

Cn1c(N2CCC(Cc3ccccc3)CC2)nc2cc(C(=O)NO)ccc21 [Example 143, 2-(4-benzylpiperidin-1-yl)-N-hydroxy-1-methyl-1H-benzo[d]imidazole-5-carboxamide]
IC50 [10, 11]: 7 nM

CN(Cc1ccccc1)c1nc2cc(C(=O)NO)ccc2o1 [Example 44, 2-[benzyl(methyl)amino]-N-hydroxy-1,3-benzoxazole-5-carboxamide]
IC50 [10, 11]: 63 nM

CCc1ccc(-c2nc3cc(C(=O)NO)ccc3s2)cc1 [Example 82, 2-(4-Ethylphenyl)-N-hydroxy-1,3-benzothiazole-5-carboxamide]
IC50 [10, 11]: 11 nM

O=C(NO)c1ccc2cc(-c3ccccc3)oc2c1 [Example 282, N-Hydroxy-2-phenyl-1-benzofuran-6-carboxamide]
IC50 [10, 11]: 9 nM

Cn1c(Nc2cccc(-c3ccccc3)c2)nc2cc(C(=O)NO)ccc21 [Example 144, 2-([1,1′-biphenyl]-3-ylamino)-N-hydroxy-1-methyl-1H-benzo[d]imidazole-5-carboxamide]
IC50 [10, 11]: 7 nM

COc1cc(-c2ccccc2F)ccc1-c1nc2cc(C(=O)NO)ccc2o1 [Example 196, 2-(2′-fluoro-3-methoxybiphenyl-4-yl)-N-hydroxy-1,3-benzoxazole-5-carboxamide]
IC50 [10, 11]: 20 nM

CC1CCN(c2ccc(-c3nc4cc(C(=O)NO)ccc4o3)cn2)CC1 [Example 152, N-Hydroxy-2-[6-(4-methylpiperidin-1-yl)pyridin-3-yl]-1,3-benzoxazole-5-carboxamide trifluoroacetate]
IC50 [10, 11]: 30 nM

COc1ccccc1N1CCN(c2ccc(-c3nc4cc(C(=O)NO)ccc4o3)cn2)CC1 [Example 160, N-hydroxy-2-{6-[4-(2-methoxyphenyl)piperazin-1-yl]pyridin-3-yl}-1,3-benzoxazole-5-carboxamide trifluoroacetate]
IC50 [10, 11]: 21 nM
